Assay results from paper PMC13439108, “An antibody–drug conjugate active against antibiotic-resistant Neisseria gonorrhoeae” (Proceedings of the National Academy of Sciences of the …, 2026).
Values after ≈ are worked out from the molar mass of the structure shown. Where a SMILES comes first, the peptide text is derived from it. [ ]: non-standard residue; d: D form. The star is where a group is joined. d(aIle) = CC[C@H](C)[C@@H](N)C(=O)O; dDab = NCC[C@@H](N)C(=O)O; Octanoyl = CCCCCCCC(=O)*; Dab = NCC[C@H](N)C(=O)O; AEEA = NCCOCCOCC(=O)O

Key:
HK-2 cells [1] = experiment: LDH release cytotoxicity; type: cell-based, human; conditions: n = 3
Method: HK-2 cells (CRL-2190™, Americab Type Culutre Collection (ATCC)), a proximal renal tubule cell(7), and End1/E6E7 (CRL-2615™, ATCC) upper cervical epithelial cells(8) were cultured in Keratinocyte Serum Free Medium (Invitrogen, Life Technologies Ltd.) with human recombinant EGF (5 ng ml-1) and bovine pituitary extract (0.05 mg ml−1) at 37°C in 5% CO2. Cells were seeded in 96-well plates (Corning, Polystyrene) at a density of 2 × 10^4 cells/well 24 hr prior; Triton-X-100 (0.1%) and Digitonin (30 μg ml−1) were used as controls. Lactate dehydrogenase (LDH) release was measured using the Biovision kit; the OD490 was assessed in a SpectraMax M5 plate reader. […]

human erythrocytes = experiment: Hemolysis of human erythrocytes; type: cell-based
Method: For hemolysis, whole human blood (1 ml; K2EDTA; Cambridge Bioscience) was washed in PBS then 0.5% added to an equal volume of peptides or ADCs in 96-well V-bottomed polypropylene plates and incubated at 37°C for 1 hr. Cells were pelleted at 1,000 × g for 10 min and the absorbance at OD415 measured. Positive (melittin, 2.5 µM, Merck Life Science) and negative (PBS) controls were normalised as 100 and 0% hemolysis, respectively. […]

N. gonorrhoeae FA1090 [2] = experiment: microbe, parasite or virus in culture; conditions: FA1090, FB
Method: 37°C, in 5% CO2 then 10 μl aliquots plated onto GCB agar. The MIC was defined as the lowest concentration of an antimicrobial that prevented bacterial growth.
Determination of N. gonorrhoeae resistance to Oct-TriA1
Single colonies of N. gonorrhoeae FA1090 were inoculated into 2 mL of FB media supplemented with 1% Vitox (Oxoid) and grown overnight. After 24 hours, 240 µl of a 1/ 5,000 dilution of FA1090 in 2x FB was added to a 48-well plate containing 2-fold dilutions of either Oct-TriA1-c (final concentration, 12.5 µg/ml to 0.2 µg/ml) or ciprofloxacin (final concentration, 16.4 to 0.001 µg/ml) in a total volume of 480
µl. Plates were incubated at 37 °C, 5% CO2 with shaking (180 rpm). After 24 hours, ODA600 of each well […]
to fresh media containing all concentrations of antimicrobials for a total of 35 days. […]

HK-2 cells [3] = experiment: MTT cell viability; type: cell-based, human; conditions: n = 3
Method: HK-2 cells (CRL-2190™, Americab Type Culutre Collection (ATCC)), a proximal renal tubule cell(7), and End1/E6E7 (CRL-2615™, ATCC) upper cervical epithelial cells(8) were cultured in Keratinocyte Serum Free Medium (Invitrogen, Life Technologies Ltd.) with human recombinant EGF (5 ng ml-1) and bovine pituitary extract (0.05 mg ml−1) at 37°C in 5% CO2. […]
Cell viability was assessed by 3-(4,5-dimethylthiazol-2-yl)-2,5-diphenyl-2H-tetrazolium bromide (MTT) assay(9); 200 µl fresh cell media and 250 µg of MTT was added to cells. Plates were Incubated at 37 °C, 5% CO2 for 3 hr then 200 µl of DMSO was added to wells with 25 µl glycine buffer (0.1 M glycine, 0.1 M NaCl pH 10.5) and shaken at 1000 r.p.m. for 10 min. Absorbance was read at OD570 nm. Cell viability was calculated as (sample absorbance – cell free blank/media control absorbance) x100.

N. gonorrhoeae WHO L = conditions: microdilution in FB, ~5 × 10^4 CFU, 24 hr, 37°C, 5% CO2
Method: (§1) columns (ThermoFisher scientific). Activated mAb was added to 0.9 mg of Oct-TriA1 analogues (synthesised by ISCA Biochemicals, UK) and incubated at room temperature for 60 min. ADCs were dialysed using slide-A-Lyzer cassette (20K MWCO, ThermoFisher scientific) into PBS overnight at 4 °C […]
(§2) MALDI-TOF MS analysis for determination of intact mass mAbs or ADCs with a concentration of 1 mg/mL were acidified with 1% trifluoroacetic acid and mixed with Super DHB matrix, 1 μl was spotted onto an MTP Anchorchip 600/384. For every mAb, three sample spots were prepared from the same solution using three protocols advised by the manufacturer. MALDI-TOF measurements were performed on a Microflex LRF mass spectrometer, equipped with a 60Hz nitrogen laser at 337nm. Number of peptides conjugated was calculated using the MALDI-TOF molecular weights (MW) [MW = M+] of each ADC, the unconjugated antibody (mAb), and the molecular weights of Oct-TriA1 analogues using the following equation.
(§3) Number of peptides = MW ADC − MW mAb […]
(§4) Determination of Oct-TriA1 Minimum Inhibitory Concentration (MIC)
(§5) N. gonorrhoeae was resuspended in PBS to an ODA600 1.0, and ̴5 × 10^4 CFU added to wells of a microdilution plate containing dilutions of antimicrobials in FB. Plates were incubated for 24 hr at […]
(§6) 37°C, in 5% CO2 then 10 μl aliquots plated onto GCB agar. The MIC was defined as the lowest concentration of an antimicrobial that prevented bacterial growth. […]
(§7) Peptide concentration in ADC preparations
(§8) Peptide concentrations for ADCs were calculated from the antibody concentration, the drug-to-antibody ratio (DAR), and the peptide molecular weight using the following formula:
(§9) Conc. peptide (µg/mL) = Conc. ADC (µg/mL) × DAR x MWpeptide (Da) […]
(§10) Where Conc. ADC is the ADC/ mAb concentration, MWADC is the mAb molecular weight (150 kDa), MWpeptide is the peptide molecular weight and DAR is the average number of peptides per conjugate.
(§11) This formula was used to convert ADC concentrations to peptide concentrations for all assays. […]

N. gonorrhoeae WHO M = conditions: microdilution in FB, ~5 × 10^4 CFU, 24 hr, 37°C, 5% CO2
Method: as §1, §2, §3, §4, §5, §6, §7, §8, §9, §10, §11

N. gonorrhoeae MS11ΔIgAP = conditions: microdilution in FB, ~5 × 10^4 CFU, 24 hr, 37°C, 5% CO2
Method: as §1, §2, §3, §4, §5, §6, §7, §8, §9, §10, §11

[4] = system: N. gonorrhoeae FA1090ΔIgAP; conditions: microdilution in FB, ~5 × 10^4 CFU, 24 hr, 37°C, 5% CO2
Method: as §1, §2, §3, §4, §5, §6, §7, §8, §9, §10, §11

N. gonorrhoeae WHO F = conditions: microdilution in FB, ~5 × 10^4 CFU, 24 hr, 37°C, 5% CO2, lowest concentration preventing growth
Method: as §1, §2, §3, §4, §5, §6, §7, §8, §9, §10, §11

N. gonorrhoeae FA1090 [5] = conditions: microdilution in FB, ~5 × 10^4 CFU, 24 hr, 37°C, 5% CO2
Method: as §1, §2, §3, §4, §5, §6, §7, §8, §9, §10, §11

Q: How did the “LDH (EC50) 4 h” value (HK-2 cells [1]; 2 × 10^4 cells/well, LDH release OD490, 4 h) turn out when CCCCCCCC(=O)N[C@@H](C(=O)N[C@H](CCN)C(=O)NCC(=O)N[C@H](CO)C(=O)N[C@H](Cc1c[nH]c2ccccc12)C(=O)N[C@@H](CO)C(=O)N[C@@H](CCN)C(=O)N[C@H](CCN)C(=O)N[C@@H](Cc1ccccc1)C(=O)N[C@@H](CCC(=O)O)C(=O)N[C@H](C(=O)N[C@@H](C(=O)N[C@@H](C)C(=O)NCCOCCOCC(=O)N[C@@H](CC(C)C)C(=O)N1CCC[C@H]1C(=O)N[C@@H](CCCNC(=N)N)C(=O)N1CCC[C@H]1C(=O)N1CCC[C@H]1C(=O)O)[C@@H](C)CC)C(C)C)C(C)C [Oct-TriA1-c] (Octanoyl-[dV][dDab]G[dS][dW]S[Dab][dDab]FEV[d(aIle)]A[AEEA]LPRPP-OH) was run?
A: 86.42 µg/mL

Q: What about the “LDH (EC50) 24 h” value (HK-2 cells [1]; LDH release OD490, 24 h) of the same compound?
A: 57.71 µg/mL

Q: And the “LDH (EC50) 48 h” value (HK-2 cells [1]; LDH release OD490, 48 h)?
A: 50.03 µg/mL

Q: And the “fold reduced hemolytic activity” value (human erythrocytes; compared with unmodified Oct-TriA1)?
A: > 25 fold

Q: What about the “Hemolysis (HC50)” value (human erythrocytes; concentration of peptide or ADC that lyses 50% of erythrocytes, washed human blood 0.5%, 37°C, 1 hr, OD415, melittin 2.5 µM = 100%, PBS = 0%, n = 3) of the same compound?
A: >1,000 μg mL^−1

Q: And the HC50 (human erythrocytes; human erythrocytes, 37°C, 1 hr, OD415)?
A: > 1 mg/mL

Q: What about the “MIC at start of resistance evolution” value (N. gonorrhoeae FA1090 [2]; 24 h, MIC = less than 50% growth (OD600) vs no antimicrobial) of the same compound?
A: 1.56 µg/mL

Q: What about the “MIC after 35 d of resistance evolution” value (N. gonorrhoeae FA1090 [2]; serial passage 35 d, MIC = less than 50% growth (OD600)) of the same compound?
A: 12.5 µg/mL

Q: And the “MTT (EC50) 4 h” value (HK-2 cells [3]; MTT reduction OD570, 4 h)?
A: 101.98 µg/mL

Q: What about the “MTT (EC50) 24 h” value (HK-2 cells [3]; MTT reduction OD570, 24 h) of the same compound?
A: 78.78 µg/mL

Q: What about the “MTT (EC50) 48 h” value (HK-2 cells [3]; MTT reduction OD570, 48 h) of the same compound?
A: 61.09 µg/mL

Q: What about the MIC (N. gonorrhoeae WHO L) of the same compound?
A: 1.56 µg/mL (≈ 0.701 µM)

Q: And the MIC (N. gonorrhoeae WHO M)?
A: 1.56 µg/mL (≈ 0.701 µM)

Q: What about the MIC (N. gonorrhoeae MS11ΔIgAP) of the same compound?
A: 6.25 µg/mL (≈ 2.81 µM)

Q: What about the MIC [4] of the same compound?
A: 0.78 µg/mL (≈ 0.35 µM)

Q: What about the MIC (N. gonorrhoeae WHO F) of the same compound?
A: 1.56 µg/mL (≈ 0.701 µM)

Q: What about the MIC (N. gonorrhoeae FA1090 [5]) of the same compound?
A: 0.78 µg/mL (≈ 0.35 µM)
